Measurements as given in patent US8436151B2, “Indoleamine 2,3-dioxygenase-2 antibodies” (Lankenau Institute for Medical Research, priority 2006, dated 2013).
“Also recorded” adds a separate entry of the source. Blank lines part the entries; values can stand above or below the molecule they belong to.

Assays:
[1] = test system: allogeneic mouse concepti; conditions: Mellor et al. 2001; Munn et al. 1998; cited from earlier work
IDO2 = target: T1, IDO2 (Mus musculus, UniProt Q8R0V5); assay: Cell-based kynurenine detection assay in IDO2 expressing T-REx cells; parameters: species or system murine; conditions: doxycycline-induced T-REx cells, increasing concentrations, 5 days (FIG. 8B)
T1 construct: The complete coding regions of murine IDO1 and IDO2 were cloned in-frame with the V5/His TAG coding region in pcDNA4/TO; expressed in transfected cells; host or cells: T-REx-293 cells (Invitrogen), pcDNA4/TO-muIDO2, doxycycline-induced
T1 sequence (Q8R0V5 1-405): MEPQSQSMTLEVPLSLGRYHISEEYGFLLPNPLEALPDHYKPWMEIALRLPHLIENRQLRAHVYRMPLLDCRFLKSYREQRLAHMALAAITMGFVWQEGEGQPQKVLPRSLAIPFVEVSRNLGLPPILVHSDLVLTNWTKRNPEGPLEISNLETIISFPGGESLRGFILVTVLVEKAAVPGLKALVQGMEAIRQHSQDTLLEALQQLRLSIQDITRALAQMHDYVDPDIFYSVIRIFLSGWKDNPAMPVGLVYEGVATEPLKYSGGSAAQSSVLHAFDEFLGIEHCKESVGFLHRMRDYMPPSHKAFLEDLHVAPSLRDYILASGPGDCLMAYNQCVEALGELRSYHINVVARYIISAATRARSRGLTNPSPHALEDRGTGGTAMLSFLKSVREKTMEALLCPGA
Procedure: This assay measures the product of the indoleamine 2,3-dioxygenase conversion of L-tryptophan to N-formyl-kynurenine by acid hydrolysis to kynurenine, which is measured indirectly though the absorbance (480 nm) of imine produced by the reaction of the aromatic amino group of klynurenine with p-dimethylaminobenzaldehyde (Ehrlich's reagent) as described by Takikawa et al. (J. Biol. Chem. (1988) 263:2041-2048). Typically, 200 μL of media from the test sample is combined with 12.5 μL of 30% TCA and incubated at 50° C. for 30 minutes. Evaporation was avoided by sealing the rim of the plate or tubes with parafilm. Samples are clarified by centrifugation for 10 minutes at 3-10K rpm. 100 μL of the supernatant was removed to a fresh well in an assay plate and mixed with 100 μL of fresh Ehrlich's reagent (2% p-dimethylaminobenzaldehyde w/v with glacial acetic acid). The plates were incubated for 10-30 minutes at room temperature and the absorbance was read at 490 nm. Typically, assays were performed in triplicate and the data analyzed using Excel software program (Microsoft). […] Typically, control values were averaged and subtracted from the sample values. The complete coding regions of murine IDO1 and IDO2 were cloned in-frame with the […] TAG coding region in pcDNA4/TO (Invitrogen) which contains a regulatory region that is repressed by the tetracyclin regulated repressor (TetR). The complete coding regions of IDO1 and IDO2 were generated using gene specific primers [IDO2 5'[…] ID NO: 16) and IDO1 5'[…] ID NO: 17)] and 3' primers that were gene specific and removed the termination codon [IDO[…] ID NO: 18) and IDO1 minus stop [NT] ID NO: 19)]. The IDO1 and 2 coding regions where then cloned in-frame with the […] carboxyl terminal Tag in the pcDNA4 TO vector (Invitrogen). IDO2 expressing 293 cells metabolize tryptophan and can be inhibited by 1-methyl-[…]). […] The cells were maintained in growth media plus supplements for 5 days, after which the media was harvested and subjected to analysis for the presence of kynurenine.

IDO2 activation of LIP = assay: Western blot of LIP (NFIL-6) expression in IDO2 expressing T-REx cells; assay type: cell-based; conditions: for inhibition of IDO2 activation of LIP: Western blot (FIG. 9B)
Procedure: T-REx™ cells (control) and T-REx™ cells expressing IDO1 were either uninduced or induced with doxycycline in the presence or absence of added tryptophan (100 μM). […] T-REx™ cells (control) and T-REx™ cells expressing IDO2 were either uninduced or induced with doxycycline in the presence or absence of added tryptophan. Cells were also optionally treated with the D, L and mixed DL racemic isomers of 1-methyl-tryptophan, (1M-D-T, 1M-L-T and 1M-LD-T, respectively). […] T-REx™ cells expressing IDO2 were either uninduced or induced with doxycycline in the presence or absence of added tryptophan.
Cell lysates were prepared as follows: Cells were removed from the dish by scrapping or pipetting in PBS and collected by centrifugation (2000 rpm/5 minutes). The supernatant was discarded and the cell pellet was lysed in RIPA buffer [50 mM Tris-HCl pH 7.4/150 mM NaCl/1% Triton x-100/1% Sodium deoxycholate/0.1% SDS] plus a protease inhibitor cocktail (Calbiochem Cat #539134). Typically 5×10^5 cells were resuspended in 200 μL of RIPA buffer. Cells lysates were vortexed and incubated on ice or frozen at −20° C. until use. Prior to use lysates were clarified by centrifugation (10,000 rpm/15 minutes) and heat denatured at 95° C. in SDS/sample buffer (100 mM Tris/25% glycerol/2% SDS/0.01% bromophenol blue/25 mM DTT). Proteins were separated by PAGE using NuPAGE® Gels (Invitrogen) and transferred at 100 Volts on to Immobilon-NC Nitrocellulose membranes (Millipore, Billerica, Mass., Cat #HAHY00010) in transfer buffer (25 mM Tris pH 8.3/192 mM glycine/20% methanol). […] For secondary antibody applications, the secondary antibody containing HRP was added in blocking buffer at the appropriate dilution, incubated by shaking at room temperature for 1 hour, and washed 5-6 times in PBS/0.1% Tween. The western membranes were developed by Chemiluminescence using SuperSignal® West Pico substrate (Pierce, Rockford, Ill., Cat #34078), exposed to autography film for an appropriate period of time (3 seconds to 18 hours), and developed.

[2] = test system: purified recIDO2 proteins (rmuIDO2 or rhuIDO2); assay: Enzyme assay of purified recombinant IDO2 (kynurenine formed from L-tryptophan); assay type: biochemical, murine and human; conditions: varying amounts 0-100 μM (FIG. 25)
Procedure: IDO2 activity was measured as the amount of kynurenine formed from L-tryptophan. The standard assay conditions consisted of a mixture containing 50 mM Pipes pH 6.5, between 50 and 600 nM of rmuIDO2 or rhuIDO2 (where 100 nM of rIDO2 is approximately 5.5 μg protein per mL reaction), 200 U catalase (0.2 mg/mL, sp act. ˜1000 U/mg), 200 μM L-tryptophan, 10 μM methylene blue and 20 mM ascorbic acid. The mixture was incubated at various times ranging from 15 minutes to 4 hours at 37° C. before the reaction was stopped by adding trichloroacetic acid (TCA) to 3% final. The samples were then heated to 50-60° C. for 30 minutes to convert N-formyl-kynureneine to kynurenine, clarified by centrifugation, and supernatants (100 μL) were removed to a new dish, mixed with 100 μL Ehrlich's reagent (2% p-dimethylaminobenzaldehyde w/v in glacial acetic acid), and incubated 10-30 minutes at room temperature. Absorbance at 490 nm was determined on a plate reader and the data collected and analyzed using Excel software (Microsoft). Typically, samples were analyzed in triplicate and control values were typically averaged and subtracted from sample values. Enzyme activity was estimated based on the conversion of tryptophan to kynurenine using linear regression analysis based on an absorbance standard curve derived from assay measurements on known amounts of kynurenine.

tumor = conditions: background statement; listed as L-1MT; cited from earlier work
IDO1 = target: T2, IDO1 (Mus musculus, UniProt P28776); assay type: cell-based, murine
T2 construct: The complete coding regions of murine IDO1 and IDO2 were cloned in-frame with the V5/His TAG coding region in pcDNA4/TO; expressed in transfected cells; host or cells: T-REx-293 cells (Invitrogen), pcDNA4/TO-muIDO1, doxycycline-induced
T2 sequence (P28776 whole entry): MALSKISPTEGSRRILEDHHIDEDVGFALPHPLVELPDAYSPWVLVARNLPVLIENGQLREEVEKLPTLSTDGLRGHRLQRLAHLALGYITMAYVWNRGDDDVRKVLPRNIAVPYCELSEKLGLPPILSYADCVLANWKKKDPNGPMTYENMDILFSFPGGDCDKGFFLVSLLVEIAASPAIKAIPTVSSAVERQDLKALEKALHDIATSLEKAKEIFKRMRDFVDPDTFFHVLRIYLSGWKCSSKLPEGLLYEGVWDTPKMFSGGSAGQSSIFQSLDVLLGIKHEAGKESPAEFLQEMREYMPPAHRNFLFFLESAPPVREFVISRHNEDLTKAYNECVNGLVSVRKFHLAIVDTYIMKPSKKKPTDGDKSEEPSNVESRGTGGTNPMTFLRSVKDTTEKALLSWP
Procedure: This assay measures the product of the indoleamine 2,3-dioxygenase conversion of L-tryptophan to N-formyl-kynurenine by acid hydrolysis to kynurenine, which is measured indirectly though the absorbance (480 nm) of imine produced by the reaction of the aromatic amino group of klynurenine with p-dimethylaminobenzaldehyde (Ehrlich's reagent) as described by Takikawa et al. (J. Biol. Chem. (1988) 263:2041-2048). Typically, 200 μL of media from the test sample is combined with 12.5 μL of 30% TCA and incubated at 50° C. for 30 minutes. Evaporation was avoided by sealing the rim of the plate or tubes with parafilm. Samples are clarified by centrifugation for 10 minutes at 3-10K rpm. 100 μL of the supernatant was removed to a fresh well in an assay plate and mixed with 100 μL of fresh Ehrlich's reagent (2% p-dimethylaminobenzaldehyde w/v with glacial acetic acid). The plates were incubated for 10-30 minutes at room temperature and the absorbance was read at 490 nm. Typically, assays were performed in triplicate and the data analyzed using Excel software program (Microsoft). Background/control samples were typically derived from media from uninduced cells or cells that lack IDO1/2 expression vectors. Typically, control values were averaged and subtracted from the sample values. […]

kynurenine production in IDO2 expressing cells (IDO2): no changes in kynurenine levels
Compound: Cn1cc(CC(N)C(=O)O)c2ccccc21 (racemic) [1M-LD-T, 1-Methyl-DL-Tryptophan]
rejection of allogeneic mouse concepti [1]: elicit MHC-restricted and T cell-mediated rejection of allogeneic mouse concepti

Compound: Cn1cc(C[C@@H](N)C(=O)O)c2ccccc21 [1M-D-T, 1-Methyl-D-Tryptophan]
inhibition of IDO2 activation of LIP (IDO2 activation of LIP): inhibited | activation of GCN2 kinase and subsequent altered LIP expression (IDO2 activation of LIP; summary statement): blocks the activation of GCN2 kinase and subsequent altered LIP expression | inhibition of purified recIDO2 proteins [2]: inhibited | kynurenine production in IDO2 expressing cells (IDO2): decrease in kynurenine production in the IDO2 expressing cells was observed only with 1M-D-T in a dose dependent manner

Compound: Cn1cc(C[C@H](N)C(=O)O)c2ccccc21 [1M-L-T, 1-Methyl-L-Tryptophan]
antitumor activity (tumor): exhibits a characteristic pattern of antitumor activities; also recorded: effective at inhibiting IDO1 activity and tumor progression | inhibition of IDO2 activation of LIP (IDO2 activation of LIP): to a lesser extent | kynurenine production in IDO2 expressing cells (IDO2): no changes in kynurenine levels

Compound: CN1C(=O)C(Cc2c[nH]c3ccccc23)NC1=S (centres unmarked) [MTH, 5-(indol-3-methyl)-3-methyl-2-thio-Hydantoin]
toxicity of inhibitor to the cells (IDO1): not toxic to the cells | kynurenine production in IDO1 expressing cells (IDO1; doxycycline-induced T-REx cells, increasing concentrations, 5 days (FIG. 8A)): decrease in kynurenine production in the IDO1 expressing cells was observed in a dose dependent manner
